{
  "source": "patent US9486472B2",
  "about": "“Methods for modulating neuronal responses” (UNIVERSITY OF BRITISH COLUMBIA CANADA, priority 2003, dated 2016)",
  "key": {"hippocampal neurons": {"system": "hippocampal neurons", "assay": "NMDA- or STS-induced apoptosis in cultured hippocampal neurons (Cell Death ELISA, 11-dUTP, PI staining)", "type": "cell-based, rat", "conditions": "100 μM NMDA + 10 μM glycine 1 h, read at 24 h; APV 50 μM; sucrose 0.4 M; myr-Dyn 100 μM; R2-CT 1 μM with Pep-1", "procedure": "(§1) Hippocampi were rapidly removed from embryonic E l 8 Sprague Dawley rats and pooled prior to trituration. Hippocampal cell suspensions were plated onto poly-Dlysine coated culture dishes or glass coverslips and grown in Neurobasal™ media 10 (Invitrogen) for 14 days in vitro (DIV). The media from mature 14 DIV neurons was removed and replaced with 100 μM NMDA plus 10 μM glycine for 1 h at 37° C. prior to restoring neurons to the defined growth media. Twenty four hours after NMDA/glycine application, neurons were processed using cell death assays. NMDA-induced [Ca^2+]i responses were evoked and measured using methods described previously^26.\nApoptosis quantification: NMDA-induced apoptosis was quantified either using a Cell Death Detection Elisa Plus Kit (Roche Applied Sciences), which is based on the in vitro determination of cytoplasmic histone-associated DNA fragments, or using TdT mediated addition of biotinylated 11-dUTP to the free 3′-OH ends of DNA. Absorbance readings for both assays were carried out using a microplate reader.\nPropidium Iodide (PI) staining of nuclei: After the induction of apoptosis, cells were fixed with 4% parafonnaldehyde/4% sucrose for 10 min followed by ice cold acetone for 1 min, and then stained with […] PI in Dulbecco's PBS for 30 min. Stained coverslips were mounted onto glass slides and viewed with a Leica fluorescence microscope to identify condensed nuclei. Cells with condensed nuclei were counted as apoptotic and the percentage of apoptotic cells to the total number of cells was calculated to give a semi-quantitative analysis, expressed as percentage of apoptosis.\nA short peptide (YKEGYNVYGIE (SEQ ID NO. 2)) corresponding to amino acid residues from 869 to 879 of the C-terminus of GluR2 (R2-CT) was synthesized and incubated with a carrier protein (Pep-1)23 at a ratio of 1:20 in Dulbecco's modified Eagle's medium\n(DMEM, Gibco) at 37° C. in a humidified atmosphere containing 5% CO2 for 30 min to allow the formation of R2-CT/Pep-1 complex. Hippocampal neurons (DW 12-14) were then overlaid with the preformed complex to reach a final R2-CT concentration of 1 μM and further incubated for 1 h before experiments commenced. Receptor Trafficking Assays"}, "NMDA receptor channel": {"target": "T1, NMDA receptor channel (Rattus norvegicus, UniProt P35439)", "T1 construct": "we loaded hippocampal neurons with the intracellular Ca2+ dye, Fura-2; endogenous in cells; host or cells: primary rat hippocampal neurons (E18 Sprague Dawley)", "assay": "NMDA-evoked [Ca2+]i responses (Fura-2)", "type": "cell-based", "conditions": "NMDA 100 μM, 500 ms puffs; sucrose 400 mM in bath", "procedure": "as §1"}, "Akt": {"system": "Akt", "assay": "Akt phosphorylation at serine 473 (Western blot)", "type": "cell-based, rat", "procedure": "Immunoprecipitation and Western blotting were carried out essentially as previously reported.^14 Proteins from cerebral cortex, hippocampal slices, cultured hippocampal neurons or transfected HEK293 cells were solubilized in RIPA buffer containing either 1% SDS (plus 5 min boiling; denaturing conditions) or 1% DOC (non-denaturing conditions). For immunoprecipitation, 500 μg of protein from these tissue lysates was incubated with their respective antibodies in 500 μl of RIPA buffer for 4 h at 4° C. Protein A-sepharose was added to the mixture and incubated for an additional 2 h. The complex was isolated by centrifugation and washed three times. Proteins eluted from the sepharose beads were subjected to SDS-PAGE and immunoblotting using their respective antibodies. For sequential re-probing of the same blots, the membranes were stripped of the initial primary and secondary antibodies and subjected to immunoblotting with another antibody. Blots were developed using enhanced chemiluminescence detection (Amersham). Band intensities were quantified using Scion Image PC software.\nThe serine/threonine kinase Akt/PKB has been implicated in protecting neurons from apoptotic cell death^17 and inhibition of this kinase activity has been suspected to be involved in NMDA receptor-mediated apoptosis^18. […]"}, "transferrin receptor": {"system": "transferrin receptor", "assay": "Transferrin receptor endocytosis assay", "type": "cell-based, rat", "conditions": "fluorescently-labeled transferrin 30 min; sucrose 0.4 M; R2-CT+Pep-1 one hour prior to and during", "procedure": "Transferrin receptor endocytosis assay: To assess the effect of endocytosis inhibitors on transferrin receptor endocytosis, hippocampal neurons were incubated with […] Alexa-A488 conjugated transferrin (Molecular Probes) for 30 min at 37° C. in the presence or absence of endocytosis inhibitors. Internalized receptors were then viewed with a Leica fluorescence microscope."}, "rats": {"system": "rats", "conditions": "IV 60 min prior to test session; versus saline", "procedure": "A. Rats maintained on a restricted feeding schedule were trained to lever-press for food pellets (45 mg) on a fixed-ratio 2 (FR2) schedule during 2-hour test sessions. Rats received IV injections of saline, GluR2-3A, or GluR2-3Y, in a counterbalanced order, 60 min prior to the test session. […] B. Rats were first trained to self-administer d-amphetamine (0.2 mg/infusion) via a jugular catheter on an FR2 schedule of reinforcement. Once responding in the 3 hour test sessions had stabilized, the rats were then trained on a Progressive Ratio Schedule in which successively more responses were required to obtain each successive reinforcement. […] Once stable Break point values were established, rats received IV injections of saline, GluR2-3A, or GluR2-3Y, in a counterbalanced order, 60 min prior to the test session."}, "Sprague-Dawley rats": {"system": "Sprague-Dawley rats", "assay": "Transient focal ischemia model (MCA occlusion), TUNEL staining and neurological exam", "type": "in vivo, rat", "conditions": "10 min prior to MCA occlusion; 3 nmoles/g", "procedure": "The procedure was performed essentially as described previously (70). Briefly, adult male Sprague-Dawley rats between 280 and 320 g (20 h fasted weight) were anesthetized with an inhaled mixture of 4% isofluorane, in 30% oxygen balanced nitrous oxide, and maintained on 1.5% isofluorane. Bronchial secretions were minimized by administering 0.5 mg/kg of atropine intraperitoneally. […] The experimenter was blinded to the identity of the treatment groups for all surgeries and down-stream experiments. Under a dissection microscope, the common carotid artery (CCA), external carotid artery (ECA), and internal carotid artery (ICA) were exposed and dissected. […] Rectal temperature, and blood pressure measured with a tail cuff were measured before treatment, 15 min post injection, 50 min post injection, and 15 min post MCA occlusion. The plasma pH, O2, and CO2 were measured with a Rapidlab™ 348 blood gas analyzer (Bayer Diagnostics) in some animals to ensure that the gas flow rates used were appropriate and yielded reproducible blood gases. […]\nAt day 1 post MCAo rats were anesthetized with 1.5 mL of 25% urethane and were perfused with 100 mL of 0.9% saline followed by 120 mLs of 4% paraformaldehyde in PBS. […] The slices were scored for number of cells that stained positive for TMR-TUNEL per field of view at 10× magnification. […]"}, "pp60 c-Src": {"target": "pp60 c-Src (Homo sapiens, UniProt P12931)", "assay": "In vitro kinase assay with active recombinant Src", "type": "biochemical", "conditions": "GST fusion protein as substrate", "from_the_text": "FIGS. 7 A-D. Insulin increases phosphorylation of tyrosine residues within the GluR2 carboxyl terminal (CT) region. A. In vitro tyrosine phosphorylation of the GluR2 CT. GST fusion proteins of the GluR1 CT (GST-GluR1CT), the GluR2 CT (GST-GluR2CT), residues 869-876 (YKEGYNVYG (SEQ ID NO. 4)) of the GluR2 CT (GST-GluR23Y), which contains a cluster of three tyrosine residues (Y869, Y873, and Y876) and the same amino acid stretch of the GluR2 CT with its tyrosine residues replaced by alanines (GST-GluR23A), along with the GST back bone (GST) as control, were incubated in the absence (−) or presence (+) of active recombinant pp60 c-Src. Phosphorylation products were immunoblotted using an anti-phosphotyrosine antibody (top panel). […] B. Expression levels of HA-GluR2 and HA-GluR23Y-3A (where tyrosines 869, 873 and 876 were mutated to alanines) 48 h after transient transfection into HEK293 cells were determined by a cell ELISA assay using permeabilized cells. C. HEK293 cells transiently transfected with HA-GluR1, HA-GluR2 or HA-GluR23Y-3A, along with empty vector (mock transfection) as control. Forty-eight hours later, the cells were treated with or without 0.5 μM insulin for 10 min. The lysates were then subjected to immunoprecipitation with an anti-HA antibody under denaturing conditions and immunoblotting with an anti-phosphotyrosine antibody (Top blot; IB: PY). […]"}, "[1]": {"system": "CA1 neurons in hippocampal slices", "assay": "Insulin-induced depression of AMPA receptor-mediated EPSCs, whole-cell recording of CA1 neurons", "type": "cell-based, rat", "conditions": "100 μg/ml in recording pipette; insulin 0.5 μM in bath", "procedure": "GST-GluR23Y and GST-GluR23A were constructed by subcloning corresponding PCR fragments into pGEX 4T-1 vectors. GST fusion proteins were expressed in DH5α E. coli and purified from bacterial lysates according to the manufacturer's protocol (Pharmacia). Products were dialyzed in PBS and concentrated using Microcon-10 columns (Amicon) for intracellular application during whole-cell recordings.\nHippocampal slices (400 μm thickness) were prepared from Sprague-Dawley rats aged 16-26 postnatal days and perfused at room temperature with artificial cerebrospinal fluid containing (mM): 126 NaCl, 26 NaHCO3, 10 glucose, 3 KCl, 1.2 KH2PO4, 1 MgCl2, and 1 CaCl2, saturated with 95% O2/5% CO2^14. The recording pipettes (4-5 MO) were filled with solution containing (mM): 135 CsCl, 10 HEPES, 5 QX-314, 4 Mg-ATP, 2 MgCl2, 0.5 EGTA, 0.2 GTP and 0.1 CaCl2, pH 7.4, 310 mOsm. Whole-cell recording of CA1 neurons and the induction of LFS-LTD were performed as previously described.^14 […]"}},
  "note": "No end group written: not given here.",
  "data": [
    {"compound": "OC[C@H]1O[C@@](CO)(O[C@H]2O[C@H](CO)[C@@H](O)[C@H](O)[C@H]2O)[C@@H](O)[C@@H]1O", "note": "[sucrose]", "values": [
      {"measurement": "NMDA-induced apoptosis", "setting": "hippocampal neurons", "value": "dramatically reduced"},
      {"measurement": "NMDA-evoked [Ca2+]i responses", "setting": "NMDA receptor channel", "value": "did not significantly alter NMDA-evoked [Ca^2+]i responses"},
      {"measurement": "NMDA-induced reduction in S473 phosphorylated Akt", "setting": "Akt; hypertonic sucrose", "value": "largely prevented"},
      {"measurement": "STS-induced reduction of Akt phosphorylation", "setting": "Akt; sucrose treatment", "value": "had no effect on the reduction of Akt phosphorylation following STS treatment"},
      {"measurement": "transferrin receptor endocytosis", "setting": "transferrin receptor", "value": "eliminated"}
    ]},
    {"compound": "N[C@@H](CCCP(=O)(O)O)C(=O)O", "note": "[APV, reference compound]", "values": [
      {"measurement": "NMDA-induced apoptosis", "setting": "hippocampal neurons", "value": "fully blocked"}
    ]},
    {"compound": "YGRKKRRQRRRAKEGANVAGIE [Tat-GluR2-3A, YGRKKRRQRRR-AKEGANVAGIE, reference compound]", "values": [
      {"measurement": "Break Point measures for drug-reward", "setting": "rats", "value": "no significant differences in the Break Point measures for drug-reward"},
      {"measurement": "total number of responses for food reward", "setting": "rats", "value": "no significant differences in total number of responses for food reward"},
      {"measurement": "mean arterial blood pressure (MABP) versus saline", "setting": "Sprague-Dawley rats", "value": "significantly lower mean arterial blood pressure"}
    ]},
    {"compound": "GSTAKEGANVAG [GST-GluR23A, mutant counterpart with tyrosines replaced by alanines, control, reference compound]", "values": [
      {"measurement": "tyrosine phosphorylation by recombinant Src kinase", "setting": "pp60 c-Src", "value": "abolished"},
      {"measurement": "insulin-induced EPSC depression", "setting": "[1]", "value": "had no effect"}
    ]}
  ]
}
